The target of experiment [1] is T1, NLuc‐A2BR (Homo sapiens, UniProt P29275).
T1 construct: expressed in transfected cells
T1 sequence (P29275 1-332): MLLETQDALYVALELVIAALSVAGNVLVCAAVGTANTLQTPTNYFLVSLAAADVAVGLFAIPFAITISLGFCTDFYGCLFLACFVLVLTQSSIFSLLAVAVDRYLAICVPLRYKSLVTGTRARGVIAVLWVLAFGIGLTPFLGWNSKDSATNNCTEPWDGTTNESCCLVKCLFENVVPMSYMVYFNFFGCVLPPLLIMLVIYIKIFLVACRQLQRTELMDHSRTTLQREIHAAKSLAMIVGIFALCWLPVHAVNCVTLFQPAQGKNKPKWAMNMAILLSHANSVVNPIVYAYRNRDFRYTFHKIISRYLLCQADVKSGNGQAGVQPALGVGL
The experiment can be described thus: NanoBRET competition binding against 50 nM PSB603‐BY630 in HEK293G cells expressing NLuc‐A2BR. The conditions noted are these: for Ki: read-out: Appararent Log K i (converted). Here is the method:
(§1) Saturation and competition binding assays were performed as previously described.[36] Briefly, cells were seeded in 96‐well white clear‐bottomed Greiner plates pre‐treated with 10 μg/mL poly‐D‐lysine (Sigma‐Aldrich, Missouri USA) at a density of 30 000–35 000 cells per well in DMEM supplemented with 10% FBS. […] The NanoLuc substrate, furimazine (Promega Corporation, Wisconsin, USA), was then added to each well (1:400 dilution) and the plate was incubated for 10 min in the dark at 37°C. The resulting bioluminescence resonance energy transfer (BRET) was measured using a PHERAstar FS plate reader (BMG Labtech) at 37°C. For each well, filtered light emissions at 460 nm (80 nm bandpass) and >610 nm (longpass) for the BODIPY630/650 ligand were simultaneously measured. BRET ratios were calculated by dividing the 610 nm emission by the 460 nm emission. All conditions were performed in 2–6 replicates within each plate. For kinetic experiments, cells were preincubated for 10 min with 1:400 dilution of furimazine prior to addition of 200 nM PSB603‐BY630 and BRET ratios determined every 0.5 min.
The IC 50 values were then used to calculate the K i values using the Cheng‐Prussoff equation: Ki=IC50/1+L/KD where [L] is the concentration of PSB603‐BY630 in nM, and K D is the dissociation constant of that fluorescent ligand in nM.

Experiment [2] concerns the target T1, NLuc‐A2BR. Nature of the experiment: NanoBRET imaging of PSB603‐BY630 binding to HEK293G cells expressing NLuc‐A2BR. The conditions noted are these: 100 nM PSB603‐BY630, co‐incubation with 10 μM MRS‐1706, 30 min. Here is the method:
Cells were seeded onto 35 mm Cellview 4‐quadrant culture dishes (Greiner Bio‐one), which have a 10 mm glass coverslip bottom, in DMEM supplemented with 10% FBS at a density of 100 000 cells per quadrant 2 days prior to experiment in total volume of 500 μL. On the day of the experiment medium was replaced with HBSS in the presence or absence of PSB603‐BY630 (100 nM) and/or MRS1706 (10 μM) and incubated for 30 min at 37°C before imaging. Bioluminescence and NanoBRET imaging were performed on an Olympus LuminoView 200 microscope with a 60× NA1.42 oil immersion objective with a 0.5× tube lens, following addition of furimazine (1:800 dilution) (Promega). Images were captured by a C9100‐23B IMAGE EMX2 camera (Hamamatsu, Japan) with gain set at 200 for all channels. Filtered bioluminescence was captured using a 438/24 bandpass filter, BRET in the presence of PSB603‐BY630 was captured using a 650/50 nm bandpass filter. For the NLuc‐A2BR stable cell line exposure times were set at 10 s for filtered bioluminescence and 75 sec for BRET. Raw intensity values were determined for three regions of interest per experiment per condition and the BRET ratio calculated by dividing the raw intensity recorded from the BRET capture by the filtered bioluminescence capture. Corrected BRET ratios were determined by subtracting the BRET ratio determined from a control quadrant (HBSS alone). […]

The next experiment concerns the target T2, endogenous A2BR (Homo sapiens, UniProt P29275).
T2 construct: HEK293G cells that express the cAMP biosensor Glosensor also endogenously express both A2BR and A2AR; host or cells: HEK293G
T2 sequence (P29275 1-332): T1 sequence (P29275 1-332)
The experiment can be described thus: cAMP GloSensor luminescence assay in HEK293G cells endogenously expressing A2BR. It counts as cell-based. Particulars: agonist alone, n=5. Here is the method: (§2) The cAMP GloSensor™ luminescence assay was performed according to the manufacturer's instructions (Promega Corporation, Madison, WI, USA). Briefly, after 24 h incubation at 37°C and 5% CO2 after cell plating (40 000 cells/well in 100 μL), medium was aspirated from each well of the 96‐well plate. Cells were incubated in 50 μL HEPES buffered saline solution (HBSS; 2 mM sodium pyruvate, 145 mM NaCl, 10 mM D‐glucose, 5 mM KCl, 1 mM MgSO4.7H2O, 10 mM HEPES, 1.3 mM CaCl2, 1.5 mM NaHCO3 in double‐distilled water, pH 7.45) containing 3% GloSensor™ cAMP reagent at 37°C for 1.5 h. For agonist studies, an initial baseline luminescence read was made at time zero, the plate was then removed from the plate‐reader and a further 50 μL HBSS containing agonist (2× final concentration) or HBSS (vehicle control) added. Luminescence was measured on an open channel (gain of 3600) immediately after these additions, and then continuously over 60 min, reading each well once every minute, by a PHERAstar FSX microplate reader (BMG Labtech, Offenburg, Germany) at 37°C. Increases in luminescence are indicative of intracellular cAMP accumulation, thus the temporal changes in relative cytosolic cAMP concentration were measured upon agonist or vehicle addition. Antagonist action was determined following 30 min pre‐incubation of HBSS in the presence of 20 and 200 nM PSB603‐BY630 and read as above. All conditions were performed in triplicates within each plate.

Experiment [3] addresses T1, NLuc‐A2BR. The experiment can be described thus: cAMP GloSensor luminescence assay in HEK293G cells overexpressing NLuc‐A2BR. It counts as cell-based. The conditions noted are these: agonist alone, n=5. Here is the method: as §2
For another experiment, the target named is T3, human NLuc‐A3R (Homo sapiens, UniProt P0DMS8).
T3 construct: expressed in transfected cells
T3 sequence (P0DMS8 1-318): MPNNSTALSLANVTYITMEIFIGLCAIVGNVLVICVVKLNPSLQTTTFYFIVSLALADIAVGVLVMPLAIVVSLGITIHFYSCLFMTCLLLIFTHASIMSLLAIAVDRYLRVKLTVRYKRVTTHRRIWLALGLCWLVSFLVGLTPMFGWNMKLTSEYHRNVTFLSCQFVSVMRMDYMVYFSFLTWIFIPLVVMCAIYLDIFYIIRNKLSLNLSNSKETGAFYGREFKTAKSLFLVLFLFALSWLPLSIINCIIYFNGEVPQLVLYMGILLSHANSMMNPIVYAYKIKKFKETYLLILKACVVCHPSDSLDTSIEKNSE
Nature of the experiment: NanoBRET saturation binding in stable HEK293G cell line expressing NLuc‐A3R. Particulars: non‐specific defined with 1 μM MRS‐1220; PSB603‐BY630 at concentrations up to 500 nM. Here is the method:
as §1, with “min. At 60 min, 10 μM MRS‐1706 was added and the ligand‐binding kinetics followed for a further 60 min.” for “min.”
(Bioluminescence resonance energy transfer reports proximity on the nanometre scale.)

A further experiment concerns the target human A2BR. More on the design: method as in PMID 23286920. Particulars: membranes from CHO cells expressing the human A2BR ref 13; cited from earlier work.

The text below walks through data of PMC11191602, “A novel and selective fluorescent ligand for the study of adenosine A2B receptors” (Pharmacology Research & Perspectives, 2024).

SMILES strings stand for the structures.

Take `O[C@H]1CC[C@H](Nc2nc(-c3ccccc3)nc3[nH]ccc23)CC1` [SLV320, trans‐4‐[(2‐Phenyl‐7H‐pyrrolo[2,3‐d]pyrimidin‐4‐yl)amino]cyclohexanol]: at NLuc‐A2BR [1], the IC50 (as a rule, the concentration at which inhibition is half-maximal) is 6460 nM and the Ki is 1740 nM.
Turning to `CCCn1c(=O)c2[nH]c(-c3ccc(OCC(=O)Nc4ccc(C(C)=O)cc4)cc3)nc2n(CCC)c1=O` [MRS1706, N‐(4‐Acetylphenyl)‐2‐[4‐(2,3,6,7‐tetrahydro‐2,6‐dioxo‐1,3‐dipropyl‐1H‐purin‐8‐yl)phenoxy]acetamide], at NLuc‐A2BR [1], the IC50 was 36.3 nM and the Ki was 9.77 nM. Also, at NLuc‐A2BR [2], the “effect on PSB603‐BY630 binding to cell surface receptors (BRET imaging)” value is “completely prevented”.
For the molecule `N#Cc1c(N)nc(SCC(N)=O)c(C#N)c1-c1ccc(OCC2CC2)cc1` [BY 60–6583, 2‐[[6‐Amino‐3,5‐dicyano‐4‐[4‐(cyclopropylmethoxy)phenyl]‐2‐pyridinyl]thio]‐acetamide], the Emax (usually the maximal effect, on the per cent scale that the assay sets) is 104 ± 3.09% at endogenous A2BR (HEK293G, read-out: Endogenous HEK293G EMAX (% of response to 3 μM BAY‐60‐6583)) and 100 ± 1.29% at NLuc‐A2BR [3] (HEK293G, read-out: HEK293G A2BAR EMAX (% of response to 0.3 μM BAY‐60‐6583)). Also, the EC50 (usually the concentration needed to bring the measured effect to its halfway point) at endogenous A2BR (read-out: Endogenous HEK293G Log EC50 (converted)) was 129 nM; on NLuc‐A2BR [3] (read-out: HEK293G A2BAR Log EC50 (converted)), 18.6 nM.
As for `COc1ccc(CCCn2ncc3c2nc(N)n2nc(-c4ccco4)nc32)cc1` [SCH442416, 2‐(2‐Furanyl)‐7‐[3‐(4‐methoxyphenyl)propyl]‐7H‐pyrazolo[4,3‐e][1,2,4]triazolo[1,5‐c]pyrimidin‐5‐amine], on NLuc‐A2BR [1], the IC50 is 9550 nM and the Ki is 2570 nM.
For the molecule `O=C(Cc1ccccc1)Nc1nc2ccc(Cl)cc2c2nc(-c3ccco3)nn12` [MRS1220, N‐[9‐Chloro‐2‐(2‐furanyl)[1,2,4]‐triazolo[1,5‐c]quinazolin‐5‐yl]benzene acetamide], at NLuc‐A2BR [1] (calculated from IC50 (Cheng‐Prussoff) assuming competition with 50 nM PSB603‐BY630 for the same site, mean ± S.E.M., n=5), the “Appararent Log K i” value was −6.40 ± 0.19. Moreover, the “Log IC50” value on NLuc‐A2BR [1] (inhibition of the binding of 50 nM PSB603‐BY630, mean ± S.E.M., n=5) is given as −5.82 ± 0.19.
For the molecule `COc1ccc(-n2nc3c(NC(=O)CCC(=O)NCCOCCOCCNC(=O)CCCCCNC(=O)COc4ccc(/C=C/C5=[N+]6C(=Cc7ccc(-c8cccs8)n7[B-]6(F)F)C=C5)cc4)nc4ccccc4n3c2=O)cc1` [AV039], the “specific binding to NLuc‐A3R” value on human NLuc‐A3R was “high affinity specific binding”.
Turning to `CCCn1c(=O)[nH]c2nc(-c3ccc(S(=O)(=O)N4CCN(c5ccc(Cl)cc5)CC4)cc3)[nH]c2c1=O` [[^3H]‐PSB603], at human A2BR, the Kd (as a rule, the constant that tells how readily two partners part at equilibrium) is 3.6 nM.
